Here are results for 60 compounds from BindingDB's records for doi:10.7270/Q2222S6W (University of Pittsburgh, 2007).

pIC50: −log10 of the molar value. Counter-ions that a name gives are not always drawn.

Broadly, the pIC50 is the IC50 on a negative log10 scale, so that one unit is a factor of ten. A lower pIC50 goes with a large IC50.

Sequence of Genome polyprotein (P06935 1371-1501 limits assumed): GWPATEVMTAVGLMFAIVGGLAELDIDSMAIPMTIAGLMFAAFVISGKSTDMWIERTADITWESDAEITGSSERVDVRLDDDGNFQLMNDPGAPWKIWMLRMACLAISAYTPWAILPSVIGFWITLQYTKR
Sequence of Genome polyprotein (P06935 1502-2120 limits assumed): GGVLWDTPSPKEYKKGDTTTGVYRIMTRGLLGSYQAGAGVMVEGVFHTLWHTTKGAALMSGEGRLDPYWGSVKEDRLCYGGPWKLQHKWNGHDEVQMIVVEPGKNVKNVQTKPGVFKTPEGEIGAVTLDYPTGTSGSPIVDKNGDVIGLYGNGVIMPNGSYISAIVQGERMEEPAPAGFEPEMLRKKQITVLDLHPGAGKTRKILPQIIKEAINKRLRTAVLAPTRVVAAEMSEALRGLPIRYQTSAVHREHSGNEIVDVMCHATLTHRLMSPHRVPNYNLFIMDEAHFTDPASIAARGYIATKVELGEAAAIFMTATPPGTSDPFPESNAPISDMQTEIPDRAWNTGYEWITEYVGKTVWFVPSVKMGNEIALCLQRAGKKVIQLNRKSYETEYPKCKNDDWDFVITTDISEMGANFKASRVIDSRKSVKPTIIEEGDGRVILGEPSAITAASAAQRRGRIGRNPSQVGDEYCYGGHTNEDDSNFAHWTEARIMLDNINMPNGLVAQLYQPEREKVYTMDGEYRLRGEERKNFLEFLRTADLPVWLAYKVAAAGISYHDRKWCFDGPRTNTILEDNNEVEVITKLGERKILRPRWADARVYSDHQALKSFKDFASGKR

The test has as its target Genome polyprotein (West Nile virus, UniProt P06935). Kind of test: inhibitors of WNV NS2B-NS3 protease, dose response, biochemical, confirmation (AID 653).
In the case of `CCN(CC(=O)NC(C)C)C(=O)CCNC(=O)c1ccc(Cl)cc1` [4-chloranyl-N-[3-[ethyl-[2-oxidanylidene-2-(propan-2-ylamino)ethyl]amino]-3-oxidanylidene-propyl]benzamide], the pIC50 is under 4.30.

Turning to `CCOC(=O)C(CC(=O)O)N1CCCCC1` (stereo not given) [4-ethoxy-4-keto-3-piperidino-butyric acid], the pIC50 was under 4.30.

On to `COc1cc(C)nc(Oc2ccc(OCCOc3ccc(C)cc3)nn2)n1` [4-methoxy-6-methyl-2-[6-[2-(4-methylphenoxy)ethoxy]pyridazin-3-yl]oxy-pyrimidine], for which the pIC50 was under 4.30.

`O=C1NC(=O)C(c2ccccc2)(c2ccccc2)N1` [5,5-DIPHENYLHYDANTOIN SODIUM SALT] showed a pIC50 of under 4.30.

`CNC(=O)c1nnc(Cc2ccc(F)cc2)o1` [5-(4-fluorobenzyl)-N-methyl-1,3,4-oxadiazole-2-carboxamide] gave a pIC50 of under 4.30.

Regarding `COc1ccc(C2CC(c3cccc(C)c3)n3ncnc3N2)cc1` (stereo not given) [5-(4-methoxyphenyl)-7-(3-methylphenyl)-1,5,6,7-tetrahydro-[1,2,4]triazolo[1,5-a]pyrimidine], the pIC50 was under 4.30.

`Cc1ccccc1S(=O)(=O)Cc1ccc(C(=O)NCCCOC(C)C)o1` [5-[(2-methylphenyl)sulfonylmethyl]-N-(3-propan-2-yloxypropyl)-2-furancarboxamide] showed a pIC50 of under 4.30.

As to `C=CCC1(CN2CCCCCC2=O)C(=O)NC(=O)NC1=O` [5-[(2-oxidanylideneazepan-1-yl)methyl]-5-prop-2-enyl-1,3-diazinane-2,4,6-trione], the pIC50 is under 4.30.

For the compound `COc1ccc(Br)cc1C=c1sc2nc(-c3ccco3)nn2c1=O` [5-[(5-bromanyl-2-methoxy-phenyl)methylidene]-2-(furan-2-yl)-[1,3]thiazolo[3,2-b][1,2,4]triazol-6-one], the negative logarithm of the IC50 (pIC50) was under 4.30.

As for `COC(=O)c1ccc(CSc2nnc(SCc3ccc(C(=O)OC)o3)s2)o1` [5-[[[5-[(5-carbomethoxy-2-furyl)methylthio]-1,3,4-thiadiazol-2-yl]thio]methyl]furan-2-carboxylic acid methyl ester], the pIC50 is under 4.30.

With `Nc1cc(OC(=O)c2cccs2)nn1S(=O)(=O)c1ccc(F)cc1` [5-amino-1-[(4-fluorophenyl)sulfonyl]-1H-pyrazol-3-yl thiophene-2-carboxylate], the pIC50 was 5.94.

For the compound `CCOC(=O)c1c(C)n(C)c2ccc(OC)c(NC(=O)CN3CCCCC3)c12` [5-methoxy-1,2-dimethyl-4-[(2-piperidinoacetyl)amino]indole-3-carboxylic acid ethyl ester], the pIC50 was under 4.30.

`Cn1c2ccccc2c2nn(-c3ccccc3)c(=O)cc21` [5-methyl-2-phenyl-3-pyridazino[4,3-b]indolone] gave a pIC50 of under 4.30.

For `COc1ccc(-c2cn3ccsc3n2)cc1` [6-(4-methoxyphenyl)imidazo[2,1-b][1,3]thiazole], the pIC50 was under 4.30.

The compound `COc1ccc2c3c(cccc13)NN=C2C` [6-Methoxy-3-methyl-1H-benzo[de]cinnoline] gave a pIC50 of 5.00.

`Cc1csc2nc(CNC(=O)C3CC=CCC3C(=O)O)cn12` (stereo not given) [6-[(3-methylimidazo[2,1-b][1,3]thiazol-6-yl)methylcarbamoyl]cyclohex-3-ene-1-carboxylic acid] gave a pIC50 of under 4.30.

Compound `COc1cc(C2CC(C(F)(F)F)n3ncc(C(=O)O)c3N2)cc(OC)c1OC` (stereo not given) [7-(trifluoromethyl)-5-(3,4,5-trimethoxyphenyl)-1,5,6,7-tetrahydropyrazolo[1,5-a]pyrimidine-3-carboxylic acid] showed a pIC50 of under 4.30.

`Cc1oc2c(CN(C)C)c(O)ccc2c(=O)c1-c1ccc2ccccc2n1` [8-[(dimethylamino)methyl]-2-methyl-7-oxidanyl-3-quinolin-2-yl-chromen-4-one]: the pIC50 was under 4.30.

The compound `CN1CCN(CC(=O)N2c3ccccc3C(=O)Nc3cccnc32)CC1` [11-[(4-methylpiperazin-1-yl)acetyl]-5,11-dihydro-6H-pyrido[2,3-b][1,4]benzodiazepin-6-one] showed a pIC50 of under 4.30.

Regarding `CCN1CCN(C(=O)C2c3cc(OC)c(OC)cc3C(=O)N3CCc4ccccc4C23)CC1` (stereo not given) [13-(4-ethylpiperazin-1-yl)carbonyl-10,11-dimethoxy-5,6,13,13a-tetrahydroisoquinolino[2,1-b]isoquinolin-8-one], the negative logarithm of the IC50 (pIC50) is under 4.30.

`COc1cc(C=CC(=O)CC(=O)C=Cc2ccc(O)c(OC)c2)ccc1O` [(1E,6E)-1,7-bis(4-hydroxy-3-methoxyphenyl)hepta-1,6-diene-3,5-dione] had a negative-log IC50 (pIC50) of under 4.30.

With `Cc1nn(-c2ccccc2)c2sc(C(=O)OC3CCOC3=O)cc12` (stereo not given) [(2-oxidanylideneoxolan-3-yl) 3-methyl-1-phenyl-thieno[2,3-c]pyrazole-5-carboxylate], the pIC50 is under 4.30.

With `CCCCc1oc2ccccc2c1C(=O)c1cc(I)c(OCCN(CC)CC)c(I)c1` [(2-{4-[(2-butyl-1-benzofuran-3-yl)carbonyl]-2,6-diiodophenoxy}ethyl)diethylamine], the negative-log IC50 (pIC50) is under 4.30.

As for `CN(C)/C=C1/Sc2ccccc2C1=O` [(2E)-2-(dimethylaminomethylene)benzothiophen-3-one], the pIC50 was under 4.30.

In turn, `CCCCOCCCNC(=O)N[C@@H](CC(C)C)C(=O)O` [(2S)-2-(3-butoxypropylcarbamoylamino)-4-methyl-pentanoic acid] gave a pIC50 of under 4.30.

`CNC(=O)Oc1ccc2c(c1)[C@]1(C)CCN(C)[C@@H]1N2C` [(3aS,8aR)-1,3a,8-trimethyl-1H,2H,3H,3aH,8H,8aH-pyrrolo[2,3-b]indol-5-yl N-methylcarbamate; 2-hydroxybenzoic acid]: the pIC50 was under 4.30.

As for `COP(=O)(OC)C(O)C(Cl)(Cl)Cl` (stereo not drawn) [(+-)-Trichlorfon], the pIC50 was under 4.30.

Take `N#[N+][CH-]C(=O)OCC(N)C(=O)O` [(E)-1-[(2S)-2-amino-2-carboxy-ethoxy]-2-diazonio-ethenolate]: the negative-log IC50 (pIC50) was under 4.30.

As for `COc1ccc(/C=C(/C#N)c2cccnc2)cc1OC` [(E)-3-(3,4-dimethoxyphenyl)-2-(3-pyridinyl)-2-propenenitrile], the pIC50 was under 4.30.

In turn, `CCCCC[C@H](O)C=C[C@H]1C=CC(=O)[C@@H]1C/C=C\CCCC(=O)O` [(Z)-7-[(1R,5S)-2-oxidanylidene-5-[(E,3S)-3-oxidanyloct-1-enyl]cyclopent-3-en-1-yl]hept-5-enoic acid] gave a pIC50 of under 4.30.

In the case of `CN(C)c1nc(N(C)C)nc(N(C)C)n1` [ALTRETAMINE], the pIC50 was under 4.30.

With `CCCC(CCC)C(=O)OC1C[C@H]2CC[C@@H](C1)[N+]2(C)C` (stereo not given in full) [ANISOTROPINE METHYLBROMIDE], the pIC50 is under 4.30.

In the case of `COc1ccc(S(=O)(=O)n2nc(OC(=O)c3ccccc3)cc2N)cc1` [Benzoic acid 5-amino-1-(4-methoxy-benzenesulfonyl)-1H-pyrazol-3-yl ester], the pIC50 was 6.98.

In turn, `CCn1nc(C(=O)O)c(=O)c2cc3c(cc21)OCO3` [CINOXACIN] had a pIC50 of under 4.30.

Turning to `CC[N+](C)(C)c1cccc(O)c1` [Edrophonium Chloride, 3], the pIC50 was under 4.30.

On to `O=C(c1ccco1)N(CCCN1CCOCC1)c1nc(-c2ccc(Cl)cc2)cs1` [Furan-2-carboxylic acid [4-(4-chloro-phenyl)-thiazol-2-yl]-(3-morpholin-4-yl-propyl)-amide], for which the pIC50 is under 4.30.

`NS(=O)(=O)c1cc2c(cc1Cl)N=CNS2(=O)=O` [MLS000028398] had a pIC50 of under 4.30.

`Cc1cccc(N(C)C(=S)Oc2ccc3ccccc3c2)c1` [MLS000028526] had a pIC50 of under 4.30.

Regarding `CC(C)(S)[C@@H](N)C(=O)O` [MLS000028669], the pIC50 is under 4.30.

In turn, `CCC(=O)O[C@]1(C(=O)CCl)[C@@H](C)C[C@H]2[C@@H]3CCC4=CC(=O)C=C[C@]4(C)[C@@]3(F)[C@@H](O)C[C@@]21C` [MLS000028708] had a pIC50 of under 4.30.

Take `CCOc1ccccc1N(CC(=O)NC1CCCC1)C(=O)CCC(=O)Nc1cc(C)on1` [MLS000032086]: the pIC50 was under 4.30.

As to `COc1ccccc1-n1c(C)nnc1SCC(=O)Nc1cc(C)cc(C)c1` [MLS000032151], the pIC50 is under 4.30.

Compound `Cc1ccc(S(=O)(=O)n2nc(OC(=O)c3ccco3)cc2N)cc1` [MLS000033865] had a pIC50 of 4.84.

Compound `COc1ccc(S(=O)(=O)n2nc(OC(=O)c3ccco3)cc2N)cc1` [MLS000033887] showed a pIC50 of 6.26.

The compound `CC(=O)Nc1nc2ccccc2n1CCOc1ccccc1Cl` [MLS000034055] gave a pIC50 of under 4.30.

On to `Cc1ccc(OCC(=O)Nc2ccc(-c3nnc(-c4ccco4)o3)cc2)cc1` [MLS000039074], for which the pIC50 was under 4.30.

In turn, `COc1ccc(C2C3=C(CC(C)(C)CC3=O)Oc3ncn4nc(-c5cccnc5)nc4c32)cc1OC` (stereo not given) [MLS000040750] showed a pIC50 of under 4.30.

In turn, `CCn1c(SCC(=O)Nc2ccc3c(c2)c2ccccc2n3CC)nnc1-c1ccco1` [MLS000050867] had a pIC50 of 4.32.

Consider `CCS(=O)(=O)N1Cc2ccccc2CC1C(=O)N1CCN(c2cccc(C)c2C)CC1` (stereo not given) [MLS000053522], for which the pIC50 is 4.41.

In turn, `CCN(CC(=O)Nc1ccccc1OC)C(=O)C1CC2C=CC1C2` (stereo not given) [MLS000053693] showed a pIC50 of under 4.30.

`Cc1sc2nc3c4ccccc4c(NCc4ccco4)nn3c(=O)c2c1C` [MLS000056809]: the pIC50 is under 4.30.

For the compound `CCN(Cc1ccccc1)C(=O)c1ccccc1C` [MLS000058902], the negative logarithm of the IC50 (pIC50) was under 4.30.

With `Cn1nnc2cc(C(=O)NC3CCCCC3)ccc21` [MLS000063766], the pIC50 was under 4.30.

`Nc1ccc(S(=O)(=O)Nc2ccccn2)cc1` [MLS000069725] had a pIC50 of under 4.30.

`COc1ccc(OC)c(NS(=O)(=O)c2cccs2)c1` [MLS000070319]: the pIC50 is under 4.30.

`COc1ccc2nc(NC(=O)CSc3nc4cccnc4n3C)sc2c1` [MLS000072990] gave a pIC50 of under 4.30.

Turning to `CCCn1c(SCC(=O)Nc2ccc3c(c2)OCCO3)nnc1-c1ccco1` [MLS000073448], the pIC50 was under 4.30.

Turning to `COC(=O)c1[nH]c2cc(OC)ccc2c1NC(=O)c1ccc2c(c1)OCO2` [MLS000081144], the pIC50 was under 4.30.

On to `CCN1CCN(CNC(=O)c2cnccn2)CC1` [MLS000082173], for which the pIC50 was under 4.30.

The compound `O=S(=O)(c1ccc(F)cc1)N(CCO)CC(O)Cn1c2ccccc2c2ccccc21` (stereo not given) [MLS000088265] showed a pIC50 of under 4.30.
